Laboratory results as given in publication PMC12081876, “Identification of PTGR2 inhibitors as a new therapeutic strategy for diabetes and obesity” (EMBO Molecular Medicine, 2025).
Where “and” joins values, the source holds several entries; their conditions need not be identical. Equal values may be shown once.

Assays:
[1] = tested on: PTGR2; set-up: method as in Toroitich et al, 2021; settings: ref Toroitich et al, 2021; cited from earlier work
[2] = tested on: PTGR2; set-up: method as in Toroitich et al, 2021; settings: ref Toroitich et al, 2021; cited from earlier work; remark: listed apart in the source
[3] = tested on: mPPARγ-downstream genes; assay: RT-qPCR of Glut4 and other mPPARγ-downstream genes in differentiated 3T3-L1 adipocytes; type: cell-based, mouse
Experimental: (§1) The cell lines, which were tested for mycoplasma contamination and authenticated, were purchased from the Bioresource Collection and Research Center, Taiwan. All cells were cultured at 37 °C, 5% CO2 in a humidified incubator. HEK293T cells were maintained in DMEM (cat. no. SH30003.02, HyClone) supplemented with 10% fetal bovine serum (FBS) (cat. no. 04-001-1A, Biological Industries) and 1% antibiotic/antimycotic solution (cat. no. SV30079.01, HyClone). 3T3-L1 preadipocytes were maintained at ~70% confluence in DMEM with 10% calf serum (cat. no. 16170078, Gibco) and 1% antibiotic/antimycotic solution. For adipocyte differentiation, confluent 3T3-L1 cells (defined as day 0) were exposed to an induction medium containing 10% FBS, 1 μM dexamethasone (cat. no. D4902, Sigma-Aldrich), and 1 μg/ml insulin (Humulin R, Eli Lilly) in DMEM with or without 0.5 mM isobutyl-methylxanthine (cat. no. sc-201188A, Santa Cruz Biotechnology) as indicated. After two days, the medium was replaced with DMEM containing 10% FBS and 1 μg/ml insulin and was replenished every two days until assay.
A total of 1 × 10^5 3T3-L1 preadipocytes were seeded in 6-well plates and differentiated for six days. The 3T3-L1 adipocytes were then harvested in 1 ml of REzol C&T (cat. no. PT-KP200CT, Protech), and total RNA was extracted according to the manufacturer’s instructions with slight modifications. Briefly, 200 μl of chloroform were added to 1 ml of sample in REzol, and samples were vigorously mixed by shaking for 30 s, followed by incubation at room temperature for 5 min. Then, samples were centrifuged at 12,000 × g for 15 min at 4 °C, and 400 μl of the upper aqueous phase were transferred to a new 1.5-ml tube. An equal volume of isopropanol was added. Samples were inverted several times for mixing and then centrifuged at 12,000 × g for 10 min at 4 °C. The RNA precipitate, which formed a pellet at the bottom of the 1.5-ml tube, was washed three times with 75% ethanol and air-dried for 15 min. Pellets were dissolved in RNase-free water. The concentration of RNA was measured using Nanodrop. cDNA was synthesized using a reverse transcription kit (cat. no. K1622, Thermo Scientific) using the oligo(dT)18 primers. RT-qPCR was performed in a 10-μl reaction with 50 ng cDNA and 0.2 μM primer using SYBR green reagent (cat. no. 11203ES08, YEASEN). Mouse peptidylprolyl isomerase A (Ppia) mRNA was used as the internal control. RT-qPCR reactions were performed using ABI 7900HT FAST (Applied Biosystems) and Sequence Detection Systems (SDS v2.3, Applied Biosystems). All qPCR reactions were run in duplicates. The primers used are listed in Appendix Table S3.

[4] = tested on: differentiated 3T3-L1 adipocytes; assay: Insulin-stimulated glucose uptake assay by (3H)2-deoxyglucose; type: cell-based, mouse; set-up: insulin-stimulated glucose uptake, Fig 1J replicates / Figure 5E raw value, insulin-stimulated glucose uptake (replicates): unit not given here
Experimental: as §1
Differentiated 3T3-L1 cells were starved with serum-free DMEM containing 0.2% BSA (cat. no. A9647, Sigma-Aldrich). Cells were rinsed twice with KRH buffer (137 mM NaCl, 4.7 mM KCl, 1.85 mM CaCl2, 1.3 mM MgSO4, 50 mM HEPES and 0.1% BSA, pH 7.4), and treated with or without […] insulin in the presence of 20 μM cytochalasin B (cat. no. 11328, Cayman Chemical), a GLUT inhibitor for measuring non-specific glucose uptake, for 30 min. Cells were then incubated with 0.5 μCi [^3H]-2-deoxy-D-Glucose (cat. no. NET328A001MC, PerkinElmer) and 0.1 μM 2-deoxy-D-Glucose (2DG) (cat. no. 14325, Cayman Chemical) for 5 min. Uptake of 2DG was terminated by rapidly removing medium and washing with ice-cold PBS three times. Cells were lysed with 0.1% SDS, and the radioactivity was measured using a liquid scintillation counter. Insulin-mediated glucose uptake was calculated by subtracting insulin-treated glucose uptake with basal glucose uptake.

[5] = tested on: PPARγ-null 3T3-L1 clones rescued with wild-type mPPARγ; assay: Insulin-stimulated glucose uptake in PPARγ-null 3T3-L1 clones rescued with wild-type mPPARγ; type: cell-based, mouse; settings: Pio 1; clone #1296 rescued with wild-type mPPARγ
Experimental: (§2) Gene editing was performed in 3T3-L1 preadipocytes using the clustered regularly interspaced short palindromic repeats (CRISPR)/Cas9 system. Two single-guide RNAs (sgRNA) (Appendix Table S5) targeting exon 6 of mouse Pparγ were designed using a web-based design tool (http://crispr.mit.edu/). These oligonucleotides were cloned into the pSurrogate reporter and pAll-Cas9.Ppuro vector obtained from Academia Sinica, Taiwan. The pSurrogate reporter contains an EGFP and an out-of-frame mCherry downstream of the sgRNA; the pAll-Cas9.Ppuro vector expresses Cas9 nuclease and sgRNA. Once a double-strand breaking at the target site in pSurrogate reporter plasmid was created by Cas9, insertions and deletions (indels) could be introduced at the cleaved site. The indels cause frameshifts and result in the expression of the mCherry gene. 3T3-L1 preadipocytes were co-transfected with pSurrogate reporter and pAll-Cas9.Ppuro vectors at 80-90% confluency using PolyJet™ transfection reagent (cat. no. SL100688, SignaGen Laboratories, USA). Two days after transfection, EGFP/mCherry double-positive cells were enriched by fluorescent-activated cell sorting. Single cells were isolated and expanded. The genomic DNA was amplified by PCR and sequenced to confirm the knockout cell lines. The primer sequences are shown in Appendix Table S5.
(§3) The mPPARγ C313A DNA sequence was amplified from pCMV6-Pparg C313A and subcloned into the pLVX-IRES-Neo vector with XhoI/NotI restriction sites. The lentiviral expression plasmids, pMD.G, and pCMVΔR8.91 (RNAi Core, Academia Sinica, Taiwan), were co-transfected into HEK293T cells. […] HSP70 was probed with an anti-HSP70 antibody (cat. no. ab45133, Abcam) as a loading control.
(§4) Differentiated 3T3-L1 cells were starved with serum-free DMEM containing 0.2% BSA (cat. no. A9647, Sigma-Aldrich). […] Uptake of 2DG was terminated by rapidly removing medium and washing with ice-cold PBS three times. Cells were lysed with 0.1% SDS, and the radioactivity was measured using a liquid scintillation counter. Insulin-mediated glucose uptake was calculated by subtracting insulin-treated glucose uptake with basal glucose uptake.

[6] = tested on: PPARγ-null 3T3-L1 clones rescued with mutant mPPARγ (C313A); assay: Insulin-stimulated glucose uptake in PPARγ-null 3T3-L1 clones rescued with mutant mPPARγ (C313A); type: cell-based, mouse; settings: Pio 1; clone #1296 rescued with mPPARγ C313A
Experimental: as §2, §3, §4

Question: For `O=C(c1ccc(S(=O)(=O)n2cncn2)cc1)N1CCC(c2ccccc2)CC1` [HHS-0701], which PTGR2 enzymatic activity [1] is on record?
Answer: inhibit PTGR2 enzymatic activity

Question: What about the “intracellular 15-keto-PGE2 concentration” value [2] of the same molecule?
Answer: increase intracellular 15-keto-PGE2 concentration dose-dependently

Question: With `CCc1ccc(CCOc2ccc(CC3SC(=O)NC3=O)cc2)nc1` (stereo not shown) [Pio, pioglitazone] as the molecule, how does the “Adipoq RT-qPCR, Fig 1I replicates” value ([3]; Pio 1μM) read?
Answer: 1.437 and 1.615 and 1.7913

Question: And the “Cepba RT-qPCR, Fig 1H replicates” value ([3]; Pio 1μM)?
Answer: 2.586 and 1.702 and 2.911

Question: What about the “Acs RT-qPCR, Fig 1G replicates” value ([3]; Pio 1) of the same molecule?
Answer: 6.866 and 5.338 and 5.547

Question: What about the “Cd36 RT-qPCR, Fig 1F replicates” value ([3]; Pio 1) of the same molecule?
Answer: 2.685 and 1.765 and 2.147

Question: And the “Glut4 RT-qPCR, Fig 1C replicates” value ([3]; Pio 1)?
Answer: 6.074 and 7.473 and 6.277

Question: What about the “Irs2 RT-qPCR, Fig 1D replicates” value ([3]; Pio 1) of the same molecule?
Answer: 3.5423 and 3.905 and 3.691

Question: And the “Sorbs1 RT-qPCR, Fig 1E replicates” value ([3]; Pio 1)?
Answer: 2.4621 and 3.493 and 3.111

Question: And the “insulin-stimulated glucose uptake, Fig 1J replicates” value ([4]; Pio 1)?
Answer: 4.303 and 3.949 and 2.761 and 3.925

Question: And the “insulin-stimulated glucose uptake, Fig 1P left panel replicates” value [5]?
Answer: 4.143 and 3.599 and 3.13 and 3.624

Question: And the “insulin-stimulated glucose uptake, Fig 1P right panel replicates” value [6]?
Answer: 4.613 and 5.328 and 5.351 and 7.42

Question: For `CCCCCC(=O)/C=C/[C@H]1[C@H](O)CC(=O)[C@@H]1C/C=C\CCCC(=O)O` [15ketoPGE2], which “Figure 5E raw value, insulin-stimulated glucose uptake (replicates)” value ([4]; 10 uM, DMSO control 2969.5-4461.5) is on record?
Answer: 5153.5 and 5837.5 and 5784.5 and 5754.5
